# Source: patent US20100249064A1, “METHODS AND COMPOSITIONS FOR TREATING DISEASES AND CONDITIONS INVOLVING HIGHER MOLECULAR WEIGHT HYALURONAN” (University of Chicago, priority 2007, published 2010)
# Assays:
# [1] = tested on: Human pulmonary artery EC; experiment: Transendothelial electrical resistance (TER) of HA-treated EC monolayers, Example 1; assay type: cell-based; conditions: for change in transmonolayer electrical resistance (TER): 1 nM, 10 nM or 100 nM HA, serum starved EC; for effect of pretreatment of HA by boiling or proteinase K digestion on HA-induced EC TER: HA boiled or proteinase K digested; for effect of hyaluronidase SD treatment of HA on HA-induced EC TER: HA treated with hyaluronidase SD
# Protocol: Measurement of TransEC Electrical Resistance (TER)—EC were grown to confluence in polycarbonate wells containing evaporated gold microelectrodes. TER measurements were performed using an electrical cell-substrate impedance sensing system (Applied Biophysics, Troy, N.Y.) as described (Garcia et al., 2001). TER values from each microelectrode were pooled at discrete time points and plotted versus time as the mean±S.E.
# [2] = tested on: Human pulmonary artery EC; experiment: Cortical actin (phalloidin) staining and quantitation; assay type: cell-based; conditions: for cortical actin ring formation (F-actin localization): early, timepoint 5 min
# Protocol: Immunofluorescence Microscopy and Cortical Actin Quantitation—Polymerized actin rearrangement was assessed first with Texas Red-conjugated phalloidin (Invitrogen (Molecular Probes), Eugene, Oreg.) and then analyzed using a Nikon Eclipse TE 300 microscope as described (Garcia et al., 2001). ImageQuant™ software (Amersham Biosciences Corp. (Piscataway, N.J.)) was used to analyze the computer recorded .tiff images. A standardized average grey value (SAGV) was generated for total phalloidin staining versus cortical phalloidin staining for each cell (Singleton et al., 2005). The following equation was used to calculate percent cortical actin staining: ((cortical actin SAGV×area) divided by (total actin SAGV×area))×100. At least ten cells per sample were analyzed. Experiments were performed in triplicate.
# Immunofluorescence Microscopy. EC were serum-starved for one hour prior to the addition of 100 nM high MW HA. EC were then fixed in 4% paraformaldehyde, permeablized with ethanol and incubated with specific protein or interest primary antibody for 30 min followed by either FITC or Texas Red-conjugated secondary (Invitrogen (Molecular Probes), Eugene, Oreg.) and analyzed using a Nikon Eclipse TE 300 microscope as described (Garcia et. al., 2001).
# HABP2 = HABP2 protein expression in EC by immunoblotting; assay type: cell-based, human; conditions: 100 nM HA, EC lysates, immunoblot
# Protocol: Immunoblotting. Proteins in the EC lysates or mouse lung homogenates were solubilized in solubilization buffer, separated on SDS-PAGE, and analyzed by immunoblotting with specific antisera and HRP conjugated secondary antibody with enhanced chemiluminescence detection (Amersham Biosciences).
# Treatment with LPS, low and high MW hyaluronan. EC were treated with 1.0 μg/ml LPS, 100 nM HMW-HA (˜1 million Daltons) or 100 nM LMW-HA (˜2,500 Daltons) for 24 hours and EC media and lysates were obtained.
# Cell culture preparation and treatment. Human pulmonary microvascular EC (HPMVEC) (Cambrex), grown in EBM-2 complete medium (Cambrex) at 37° C. in a humidified atmosphere of 5% CO2, 95% air, with passages 6-10 used for experimentation will be treated with or without 1.0 μg/ml LPS, 100 nM HMW-HA and/or 100 nM LMW-HA in the presence or absence of exogenous purified recombinant HABP2 polyanion binding domain and/or C1INH (Novus Biologicals), HABP2 and/or C1INH overexpression vector or siRNA (scramble, HABP2, C1INH, PAR-1, PAR-2, PAR-3, PAR-4, tenascin-C or perlecan) or the potent hyaluronidase inhibitor, L-ascorbic acid 6-hexadecanoate (Botzki et al., 2004) (Sigma). Extracellular media and/or treated EC will either be analyzed for protein expression, HABP2 protease activity, hyaluronidase activity or Trans-endothelial Electrical Resistance (TER). […]
# Human pulmonary EC = experiment: TER, HABP2/C1INH regulation of EC barrier function (Examples 3 and 6); assay type: cell-based; conditions: 100 nM HA or 10 μg/ml purified HABP2
# Protocol: Measurement of transendothelial monolayer electrical resistance (TER). EC were grown to confluence in polycarbonate wells containing evaporated gold microelectrodes, and TER measurements performed using an electrical cell-substrate impedance sensing system obtained from Applied Biophysics (Troy, N.Y.) as previously described in detail (Garcia et al. 2001). TER values from each microelectrode were pooled at discrete time points and plotted versus time as the mean±S.E.
# Determination of EC barrier function. Human pulmonary endothelial cells were grown to confluence in polycarbonate wells containing evaporated gold microelectrodes (surface area, 10-3 cm^2) in series with a large gold counter electrode (1 cm^2) connected to a phase-sensitive lock-in amplifier as described previously. Measurements of transendothelial electrical resistance (TER) were performed using an electrical cell-substrate impedance sensing system (ECIS) (Applied BioPhysics Inc.). Briefly, current was applied across the electrodes by a 4,000-Hz AC voltage source with amplitude of 1 V in series with a 1 MS/resistance to approximate a constant current source (˜1 μA). The in-phase and out-of-phase voltages between the electrodes were monitored in real time with the lock-in amplifier and subsequently converted to scalar measurements of transendothelial impedance, of which resistance was the primary focus. TER was monitored for 30 minutes to establish a baseline resistance (R0) which, for pulmonary endothelium, was typically between 8 to 12×10^3Ω (wells with R0<7×10^3Ω were rejected). As cells adhere and spread out on the microelectrode, TER increases (maximal at confluence), whereas cell retraction, rounding, or loss of adhesion was reflected by a decrease in TER. These measurements provide a highly sensitive biophysical assay that indicates the state of cell shape and focal adhesion. Values from each microelectrode were pooled at discrete time points and plotted versus time as the mean±SE of the mean (Garcia et al., 2001).
effect of pretreatment of HA by boiling or proteinase K digestion on HA-induced EC TER [1],effect of hyaluronidase SD treatment of HA on HA-induced EC TER ([1]; listed as High MW HA),effect of hyaluronidase SD treatment of HA on HA-induced EC TER ([1]; listed as Low MW HA),Substance,change in transmonolayer electrical resistance (TER) [1],cortical actin ring formation (F-actin localization) [2],HABP2 protein expression in EC (HABP2; listed as high MW hyaluronan),change in TER / EC barrier function (Human pulmonary EC; listed as High MW hyaluronan),cortical actin staining / F-actin stress fiber formation ([2]; challenge for 30 min),HABP2 protein expression in EC (HABP2; listed as low molecular weight (MW) hyaluronan),change in TER / EC barrier function (Human pulmonary EC; listed as low MW hyaluronan)
little effect,blocked the effects of High MW HA,–,hyaluronan [HMW-HA],gradual and sustained rise in transmonolayer electrical resistance (TER) in a dose-dependent fashion,induced prominent cortical actin ring formation early on,reduced,increased transendothelial monolayer electrical resistance (TER),–,–,–
little effect,–,blocked the effects of Low MW HA,"hyaluronan [LMW-HA, reference compound]",biphasic changes in TER with an initial rapid increase in barrier enhancement followed by significant and prolonged barrier disruption,induced prominent cortical actin ring formation early on,–,–,loss of cortical actin staining with increased F-actin stress fiber formation,significantly enhanced,induced negative TER changes ultimately resulting in EC barrier disruption
